From PMC7588185 (2020) come the findings set out here.

Usually Kd stands for the equilibrium constant for the complex coming apart. Read a low Kd as a tighter complex.

The structures appear in SMILES notation.

The subject of the assay is aad-4 riboswitch RNA (aad-4 leader RNA) (RNA, riboswitch) GGAGCAGCAACGAUGUUACGCAGCAGGGCAGUCGCCCUAAACAAAGUUAGGCCGCAUGGACACAACGCAGGUCACAUUGAUACACCAAAUUCUAGCUGCGGCAGAUGAGCGAAAU
Kind of assay: MicroScale Thermophoresis. Particulars: 100 mM KCl, 0.1 mM MgCl2, 10 mM HEPES pH 7.5, FTSC-labelled RNA. In general terms: Microscale thermophoresis detects binding through changes in fluorescence in a small temperature gradient.

Where [1] appears, read: only group range 1.2–3.9 µM given.

Under setting [1], `CN[C@@H]1[C@@H](O)[C@@H](O[C@@H]2[C@@H](O)[C@H](O[C@H]3OC(CN)=CC[C@H]3N)[C@@H](N)C[C@H]2N)OC[C@]1(C)O` came in with a Kd of 2.16 ± 0.25 µM.

As for `NC[C@@H]1O[C@H](O[C@H]2[C@@H](O)[C@H](O[C@@H]3[C@@H](O)[C@H](N)C[C@H](N)[C@H]3O[C@H]3O[C@H](CO)[C@@H](O)[C@H](O)[C@H]3N)O[C@@H]2CO)[C@H](N)[C@@H](O)[C@@H]1O`, the equilibrium dissociation constant (Kd) worked out at 10 µM.

`NC[C@H]1O[C@H](O[C@H]2[C@H](O)[C@@H](O)[C@H](N)C[C@@H]2N)[C@H](N)[C@@H](O)[C@@H]1O` came in with an equilibrium dissociation constant (Kd) of 12 µM.

`NC[C@H]1O[C@H](O[C@H]2[C@H](O)[C@@H](O[C@H]3O[C@H](CO)[C@@H](O)[C@H](N)[C@H]3O)[C@H](N)C[C@@H]2N)[C@H](N)C[C@@H]1O` displayed a dissociation constant Kd under setting [1] of 1.58 ± 0.28 µM.

With `NC[C@H]1O[C@H](O[C@H]2[C@H](O)[C@@H](O[C@H]3O[C@H](CO)[C@@H](O)[C@H](N)[C@H]3O)[C@H](N)C[C@@H]2N)[C@H](N)[C@@H](O)[C@@H]1O`, the Kd under setting [1] was found to be 2.55 ± 0.24 µM.

In turn, `NC[C@H]1O[C@H](O[C@H]2[C@H](O[C@@H]3O[C@H](CO)[C@@H](O)[C@H]3O)[C@@H](O)[C@H](N)C[C@@H]2N)[C@H](N)[C@@H](O)[C@@H]1O` yielded an equilibrium dissociation constant (Kd) of 40 µM.
